Patent US20240025905A1, “SALTS OF DIHYDROPYRIMIDINE DERIVATIVES, COMPLEXES AND USES THEREOF IN MEDICINE” (SUNSHINE LAKE PHARMA CO., LTD., priority 2020, published 2024)

How the values were obtained:
[1] = Experimental research on hygroscopicity; assay type: physicochemical; details: 25° C.±1° C., relative humidity 90%±2%, 24 hours
Method: A dry stoppered glass weighing bottle (outer diameter was 50 mm, height was 15 mm) was placed in a suitable constant temperature dryer (a saturated solution of ammonium chloride or ammonium sulfate was placed at the bottom, the relative humidity was within 90%±2%) at 25° C.±1° C. the day before, and the weighing bottle was precisely weighed (m1). An appropriate amount of the test product was spread flat in the above weighing bottle. The thickness of the test product was generally about 1 mm, and the weighing bottle was precisely weighed (m2). The weighing bottle was opened and placed for 24 hours under the above constant temperature and humidity conditions with the bottle cap. The weighing bottle was closed and precisely weighed (m3), and the weight gain percentage (%) was calculated. Testing method: According to Ph.

[2] = Stability test (high temperature, high humidity and light tests); assay type: physicochemical; details: for stability (in words): high temperature, high humidity or light conditions for 10 days
Method: High temperature test: An appropriate amount of the test product was added into a flat weighing bottle and spread into a thin layer with thickness ≤5 mm. The bottle was placed at 60° C. or 40° C. for 10 days. Samples were taken at the 5th and 10th days to check the appearance, related substances and purity.
High humidity test: An appropriate amount of the test product was added into a flat weighing bottle and spread into a thin layer with thickness 5 mm. The bottle was placed at 25° C. and a relative humidity of 90%±5% for 10 days. Samples were taken at the 5th and 10th days to check the appearance, related substances and purity. At the same time, the weight of the test product before and after the test were accurately weighed to investigate the moisture absorption and deliquescence performance of the test product. Light test: An appropriate amount of the test product was added into a flat weighing bottle and spread into a thin layer with thickness ≤5 mm. The bottle was opened and placed in a light box (with UV) at the illuminance 4500±500 lx, UV light≥0.7 w/m^2 for 10 days. Samples were taken at the 5th and 10th days to check the appearance, related substances and purity.

[3] = Pharmacokinetic evaluation of experimental animals after oral administration; assay type: in vivo, Beagle dogs; details: for AUC0-t / Cmax: beagle dogs, oral via capsules, 10 mg/kg; for absorption in the body / in animals (in words): dog, in vivo; for exposure / pharmacokinetic properties (in words): experimental animals, oral
Method: Blood samples were taken at 0.25, 0.5, 1, 2, 4, 6, 8 and 24 hours from forelimb vein after the administration, and collected in anticoagulation tube with EDTA-K2. After liquid-liquid extraction, the blood samples were quantitatively analyzed on a triple quadrupole tandem mass spectrometer using multiple reactive ion monitoring (MRM). Pharmacokinetic parameters (AUC0-t and Cmax) were calculated using a noncompartmental method by WinNonLin 6.3 software.

[4] = High humidity (90% RH), 25° C., 5 days
[5] = High humidity (90% RH), 25° C., 10 days
[6] = High temperature (60° C.), 5 days
[7] = High temperature (60° C.), 10 days
[8] = Light (4500±500 lx, UV light≥0.7 w/m^2), 5 days
[9] = Light (4500±500 lx, UV light≥0.7 w/m^2), 10 days

Row | Weight gain of moisture absorption (%) [1] | hygroscopicity judgment [1] | Purity (%) ([2]; 0 days) | Purity (%) [2, 4] | Purity (%) [2, 5] | Purity (%) [2, 6] | Purity (%) [2, 7] | Purity (%) [2, 8] | Purity (%) [2, 9] | stability (in words) [2] | AUC0-t [3] | Cmax [3] | absorption in the body / in animals (in words) [3] | exposure / pharmacokinetic properties (in words) [3] | stability under high temperature (in words) ([2]; high temperature (such as 60° C.)) | SMILES
1 | 1.32% | slightly hygroscopicity | 99.39% | 99.37% | 99.30% | 99.36% | 99.22% | 99.34% | 99.26% | very good | 8630 ng·h/mL | 4980 ng/mL | better absorbed | higher exposure |  | COC(=O)C1=C(CN2CCN3C(=O)N(c4ccc(CCC(=O)O)cc4F)C[C@@H]3C2)N=C(c2nccs2)N[C@H]1c1ccc(F)cc1Cl.Cl [3-(4-((S)-7-(((R)-6-(2-chloro-4-fluorophenyl)-5-(methoxycarbonyl)-2-(thiazol-2-yl)-1,6-dihydropyrimidin-4-yl)methyl)-3-oxohexahydroimidazo[1,5-a]pyrazine-2(3H)-yl)-3-fluorophenyl)prop ionic acid hydrochloride crystal form A]
2 |  |  | 98.41% | 98.82% | 98.69% | 98.43% | 98.93% | 98.80% | 98.88% | very good | 5690 ng·h/mL | 3340 ng/mL |  |  |  | Br.COC(=O)C1=C(CN2CCN3C(=O)N(c4ccc(CCC(=O)O)cc4F)C[C@@H]3C2)N=C(c2nccs2)N[C@H]1c1ccc(F)cc1Cl [3-(4-((S)-7-(((R)-6-(2-chloro-4-fluorophenyl)-5-(methoxycarbonyl)-2-(thiazol-2-yl)-1,6-dihydropyrimidin-4-yl)methyl)-3-oxohexahydroimidazo[1,5-a]pyrazine-2(3H)-yl)-3-fluorophenyl)propionic acid hydrobromide crystal form A]
3 |  |  | 99.40% | 99.37% | 99.36% | 99.15% | 98.68% | 99.37% | 99.40% | very good |  |  |  |  |  | COC(=O)C1=C(CN2CCN3C(=O)N(c4ccc(CCC(=O)O)cc4F)C[C@@H]3C2)N=C(c2nccs2)N[C@H]1c1ccc(F)cc1Cl.CS(=O)(=O)O [3-(4-((S)-7-(((R)-6-(2-chloro-4-fluorophenyl)-5-(methoxycarbonyl)-2-(thiazol-2-yl)-1,6-dihydropyrimidin-4-yl)methyl)-3-oxohexahydroimidazo[1,5-a]pyrazine-2(3H)-yl)-3-fluorophenyl)propionic acid methanesulfonate crystal form A]
4 |  |  | 99.13% | 99.04% | 99.07% | 98.86% | 98.39% | 99.03% | 99.06% | very good | 4350 ng·h/mL | 2690 ng/mL |  |  |  | COC(=O)C1=C(CN2CCN3C(=O)N(c4ccc(CCC(=O)O)cc4F)C[C@@H]3C2)N=C(c2nccs2)N[C@H]1c1ccc(F)cc1Cl.O=P(O)(O)O [Phosphate crystal form A of the compound having Formula (Ia)] [3-(4-((S)-7-(((R)-6-(2-chloro-4-fluorophenyl)-5-(methoxycarbonyl)-2-(thiazol-2-yl)-1,6-dihydropyrimidin-4-yl)methyl)-3-oxohexahydroimidazo[1,5-a]pyrazine-2(3H)-yl)-3-fluorophenyl)prop ionic acid phosphate crystal form A]
5 |  |  | 99.34% | 99.29% | 99.36% | 87.42% | 60.31% | 99.30% | 99.30% |  | 1900 ng·h/mL | 907 ng/mL |  |  | unstable | COC(=O)C1=C(CN2CCN3C(=O)N(c4ccc(CCC(=O)O)cc4F)C[C@@H]3C2)N=C(c2nccs2)N[C@H]1c1ccc(F)cc1Cl.O=P(O)(O)O [Phosphate crystal form C of the compound having Formula (Ia)] [3-(4-((S)-7-(((R)-6-(2-chloro-4-fluorophenyl)-5-(methoxycarbonyl)-2-(thiazol-2-yl)-1,6-dihydropyrimidin-4-yl)methyl)-3-oxohexahydroimidazo[1,5-a]pyrazine-2(3H)-yl)-3-fluorophenyl)prop ionic acid phosphate crystal form C]
6 |  |  | 99.14% | 99.17% | 99.22% | 99.16% | 99.12% | 99.17% | 99.15% | very good |  |  |  |  |  | COC(=O)C1=C(CN2CCN3C(=O)N(c4ccc(CCC(=O)O)cc4F)C[C@@H]3C2)N=C(c2nccs2)N[C@H]1c1ccc(F)cc1Cl.O=S(=O)(O)O [Sulfate crystal form A of the compound having Formula (Ia)] [3-(4-((S)-7-(((R)-6-(2-chloro-4-fluorophenyl)-5-(methoxycarbonyl)-2-(thiazol-2-yl)-1,6-dihydropyrimidin-4-yl)methyl)-3-oxohexahydroimidazo[1,5-a]pyrazine-2(3H)-yl)-3-fluorophenyl)prop ionic acid sulfate crystal form A]
7 | 0.97% | slightly hygroscopicity | 98.98% | 98.90% | 98.94% | 98.94% | 98.68% | 99.01% | 98.91% | very good | 10840 ng·h/mL | 6620 ng/mL | better absorbed | higher exposure |  | COC(=O)C1=C(CN2CCN3C(=O)N(c4ccc(CCC(=O)O)cc4F)C[C@@H]3C2)N=C(c2nccs2)N[C@H]1c1ccc(F)cc1Cl.O=S(=O)(O)O [Sulfate crystal form B of the compound having Formula (Ia)] [3-(4-((S)-7-(((R)-6-(2-chloro-4-fluorophenyl)-5-(methoxycarbonyl)-2-(thiazol-2-yl)-1,6-dihydropyrimidin-4-yl)methyl)-3-oxohexahydroimidazo[1,5-a]pyrazine-2(3H)-yl)-3-fluorophenyl)prop ionic acid sulfate crystal form B]

Row | SMILES | Weight gain of moisture absorption (%) [1] | hygroscopicity judgment [1] | Purity (%) ([2]; 0 days) | Purity (%) [2, 4] | Purity (%) [2, 5] | Purity (%) [2, 6] | Purity (%) [2, 7] | Purity (%) [2, 8] | Purity (%) [2, 9] | stability (in words) [2] | AUC0-t [3] | Cmax [3] | absorption in the body / in animals (in words) [3] | exposure / pharmacokinetic properties (in words) [3] | stability under high temperature (in words) ([2]; high temperature (such as 60° C.))
8 | COC(=O)C1=C(CN2CCN3C(=O)N(c4ccc(CCC(=O)O)cc4F)C[C@@H]3C2)NC(c2nccs2)=N[C@H]1c1ccc(F)cc1Cl.N=C(N)NCCC[C@H](N)C(=O)O [3-(4-((S)-7-(((R)-6-(2-chloro-4-fluorophenyl)-5-(methoxycarbonyl)-2-(thiazol-2-yl)-3,6-dihydropyrimidin-4-yl)methyl)-3-oxohexahydroimidazo[1,5-a]pyrazine-2(3H)-yl)-3-fluorophenyl)prop ionic acid L-arginine salt crystal form A] | 1.34% | slightly hygroscopicity | 99.52% | 99.38% | 99.39% | 99.46% | 99.42% | 99.10% | 98.72% | very good | 13100 ng·h/mL | 6810 ng/mL | better absorbed | higher exposure | 
9 | CN(C)C=O.COC(=O)C1=C(CN2CCN3C(=O)N(c4ccc(CCC(=O)O)cc4F)C[C@@H]3C2)NC(c2nccs2)=N[C@H]1c1ccc(F)cc1Cl [3-(4-((S)-7-(((R)-6-(2-chloro-4-fluorophenyl)-5-(methoxycarbonyl)-2-(thiazol-2-yl)-3,6-dihydropyrimidin-4-yl)methyl)-3-oxohexahydroimidazo[1,5-a]pyrazine-2(3H)-yl)-3-fluorophenyl)prop ionic acid N,N-dimethylformamide complex] |  |  | 98.63% | 98.87% | 98.71% | 98.48% | 97.76% | 98.82% | 98.48% | very good |  |  |  |  | 
